# ChEMBL document CHEMBL2401616, “A novel amalgamation of 1,2,3-triazoles, piperidines and thieno pyridine rings and evaluation of their antifungal activity” (2013)
# Calls of active or inactive are those of the source. The calls are words filed in the database; no cut-off is given here.
# Legend:
# Cryptococcus neoformans [1] = test: Antifungal activity against Cryptococcus neoformans NCIM 576 assessed as growth inhibition up to 200 ug/mL by agar dilution method; type: functional, organism-based
# Aspergillus niger [2] = test: Antifungal activity against Aspergillus niger NCIM 1196 assessed as growth inhibition up to 200 ug/mL by agar dilution method; type: functional, organism-based
# Candida albicans = test: Antifungal activity against Candida albicans NCIM 3471 assessed as growth inhibition by agar dilution method; type: functional
# Fusarium oxysporum [3] = test: Antifungal activity against Fusarium oxysporum NCIM 1332 assessed as growth inhibition by agar dilution method; type: functional
# Aspergillus flavus [4] = test: Antifungal activity against Aspergillus flavus NCIM 539 assessed as growth inhibition by agar dilution method; type: functional
# Aspergillus niger [5] = test: Antifungal activity against Aspergillus niger NCIM 1196 assessed as growth inhibition by agar dilution method; type: functional
# Cryptococcus neoformans [6] = test: Antifungal activity against Cryptococcus neoformans NCIM 576 assessed as growth inhibition by agar dilution method; type: functional
# Aspergillus flavus [7] = test: Antifungal activity against Aspergillus flavus NCIM 539 assessed as growth inhibition up to 200 ug/mL by agar dilution method; type: functional, organism-based
# Fusarium oxysporum [8] = test: Antifungal activity against Fusarium oxysporum NCIM 1332 assessed as growth inhibition up to 200 ug/mL by agar dilution method; type: functional, organism-based
MIC (Candida albicans),MIC (Fusarium oxysporum [3]),MIC (Aspergillus flavus [4]),MIC (Aspergillus niger [5]),MIC (Cryptococcus neoformans [6]),SMILES,growth inhibition (GI) (Cryptococcus neoformans [1]),growth inhibition (GI) (Aspergillus niger [2]),growth inhibition (GI) (Aspergillus flavus [7]),growth inhibition (GI) (Fusarium oxysporum [8])
50 µg/mL,60 µg/mL,30 µg/mL,,,CCC(=O)N1CCC(n2cc(CN3CCc4sccc4C3)nn2)CC1,inactive,inactive,,
45 µg/mL,40 µg/mL,40 µg/mL,42.5 µg/mL,45 µg/mL,O=C(c1ccc(Cl)cc1)N1CCC(n2cc(CN3CCc4sccc4C3)nn2)CC1,,,,
40 µg/mL,45 µg/mL,,100 µg/mL,,CC(=O)N1CCC(n2cc(CN3CCc4sccc4C3)nn2)CC1,inactive,,inactive,
50 µg/mL,75 µg/mL,60 µg/mL,100 µg/mL,90 µg/mL,c1ccc(CN2CCC(n3cc(CN4CCc5sccc5C4)nn3)CC2)cc1,,,,
90 µg/mL,,65 µg/mL,,100 µg/mL,O=C(c1ccccc1)N1CCC(n2cc(CN3CCc4sccc4C3)nn2)CC1,,inactive,,inactive

# Continued, molecule first:
SMILES,MIC (Candida albicans),MIC (Fusarium oxysporum [3]),MIC (Aspergillus flavus [4]),MIC (Aspergillus niger [5]),MIC (Cryptococcus neoformans [6]),growth inhibition (GI) (Cryptococcus neoformans [1]),growth inhibition (GI) (Aspergillus niger [2]),growth inhibition (GI) (Aspergillus flavus [7]),growth inhibition (GI) (Fusarium oxysporum [8])
CN1CCC(n2cc(CN3CCc4sccc4C3)nn2)CC1,40 µg/mL,70 µg/mL,40 µg/mL,,,inactive,inactive,,
c1cc2c(s1)CCN(Cc1cn(C3CCNCC3)nn1)C2,50 µg/mL,90 µg/mL,60 µg/mL,100 µg/mL,100 µg/mL,,,,
CS(=O)(=O)N1CCC(n2cc(CN3CCc4sccc4C3)nn2)CC1,50 µg/mL,30 µg/mL,40 µg/mL,40 µg/mL,25 µg/mL,,,,
Clc1ccc(COC(Cn2ccnc2)c2ccc(Cl)cc2Cl)c(Cl)c1 (stereo not given) [MICONAZOLE],25 µg/mL,25 µg/mL,12.5 µg/mL,12.5 µg/mL,25 µg/mL,,,,
CC(C)C(=O)N1CCC(n2cc(CN3CCc4sccc4C3)nn2)CC1,100 µg/mL,100 µg/mL,35 µg/mL,47.5 µg/mL,150 µg/mL,,,,
CCN1CCC(n2cc(CN3CCc4sccc4C3)nn2)CC1,90 µg/mL,100 µg/mL,35 µg/mL,47.5 µg/mL,150 µg/mL,,,,
Cc1ccc(S(=O)(=O)N2CCC(n3cc(CN4CCc5sccc5C4)nn3)CC2)cc1,60 µg/mL,70 µg/mL,45 µg/mL,37.5 µg/mL,40 µg/mL,,,,
